Measurements published in the supplement of paper PMC10307832.

Assays:
Test in all cases: relative viability (nuclei count vs DMSO), 5 days (fraction); higher = more cells survive
[1] = compound: COc1cc2nc(N3CCCN(C)CC3)nc(NC3CCN(Cc4ccccc4)CC3)c2cc1OC + Cc1cc(Nc2cc(N3CCN(C)CC3)nc(Sc3ccc(NC(=O)C4CC4)cc3)n2)n[nH]1 [Tozasertib] (partner 0.1 µM)
How it was run: (§1)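 Relative viability divides the nuclei count in treated wells by that in vehicle wells. Lung cancer cell lines were seeded in 1536-well plates, dosed by pin tool the next day, and fixed and stained after 5 days in one step with final 0.05% Triton X-100, 1% formaldehyde and 1 ug/ml Hoechst. Dosing was a single drug or a fixed anchor-drug dose plus five library-drug doses (not always all listed) in √10 steps, and values are medians of duplicate plates imaged at 4×.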

[2] = compound: COc1cc2nc(N3CCCN(C)CC3)nc(NC3CCN(Cc4ccccc4)CC3)c2cc1OC + NC(=O)Nc1cc(-c2cccc(F)c2)sc1C(=O)N[C@H]1CCCNC1 [AZD7762] (partner 0.2 µM)
How it was run: as §1

[3] = compound: COc1cc2nc(N3CCCN(C)CC3)nc(NC3CCN(Cc4ccccc4)CC3)c2cc1OC + COc1cccc2cc(-c3nc([C@H]4CC[C@H](C(=O)O)CC4)n4ncnc(N)c34)[nH]c12 [OSI-027] (partner 0.5 µM)
How it was run: as §1

AZD6482 + Alpelisib = compound: Cc1cc([C@@H](C)Nc2ccccc2C(=O)O)c2nc(N3CCOCC3)cc(=O)n2c1 [AZD6482] + Cc1nc(NC(=O)N2CCC[C@H]2C(N)=O)sc1-c1ccnc(C(C)(C)C(F)(F)F)c1 [Alpelisib] (partner 2 µM)
How it was run: as §1

| Cell Line | relative viability ([1]; first compound 0.2 µM) | relative viability ([1]; first compound 0.6325 µM) | relative viability ([1]; first compound 2 µM) | relative viability ([1]; first compound 6.325 µM) | relative viability ([2]; first compound 0.2 µM) | relative viability ([2]; first compound 0.6325 µM) | relative viability ([2]; first compound 2 µM) | relative viability ([2]; first compound 6.325 µM) | relative viability ([3]; first compound 0.2 µM) | relative viability ([3]; first compound 0.6325 µM) | relative viability ([3]; first compound 2 µM) | relative viability ([3]; first compound 6.325 µM) | relative viability (AZD6482 + Alpelisib; first compound 0.08 µM) | relative viability (AZD6482 + Alpelisib; first compound 0.253 µM) | relative viability (AZD6482 + Alpelisib; first compound 0.8 µM) | relative viability (AZD6482 + Alpelisib; first compound 2.53 µM) | relative viability (AZD6482 + Alpelisib; first compound 8 µM) |
| --- | --- | --- | --- | --- | --- | --- | --- | --- | --- | --- | --- | --- | --- | --- | --- | --- | --- |
| NCI-H1944 | 0.248 | 0.277 | 0.268 | 0.28 | 0.534 | 0.476 | 0.487 | 0.51 | 0.428 | 0.465 | 0.307 | 0.398 | 0.6 | 0.518 | 0.6 | 0.421 | 0.51 |
| LU99A | 0.238 | 0.255 | 0.283 | 0.262 | 0.383 | 0.314 | 0.301 | 0.285 | 0.319 | 0.292 | 0.26 | 0.278 | 0.452 | 0.441 | 0.619 | 0.372 | 0.421 |
| SW 1573 | 0.196 | 0.165 | 0.246 | 0.128 | – | – | – | – | 0.564 | 0.787 | 0.551 | 0.254 | 0.518 | 0.533 | 0.47 | 0.303 | 0.407 |
| NCI-H2347 | 0.568 | 0.604 | 0.743 | 0.64 | 0.697 | 0.714 | 0.839 | 0.76 | 0.461 | 0.304 | 0.452 | 0.472 | – | 0.743 | 0.891 | 0.514 | 0.719 |
| NCI-H2009 | 0.761 | 0.727 | 0.855 | 0.656 | – | – | – | – | 0.681 | 0.531 | 0.784 | 0.29 | 0.936 | 1.15 | 1.04 | 0.484 | 0.985 |
| HCC-15 | 0.477 | 0.378 | 0.557 | 0.368 | 1.28 | 1.2 | 1.15 | 1.34 | 0.696 | 0.712 | 0.619 | 0.377 | 0.856 | 0.797 | 0.861 | 0.736 | 0.772 |
| HCC-44 | 0.973 | 0.922 | 1.25 | 1.22 | 1.04 | 0.995 | 0.994 | 1.01 | 0.604 | 0.571 | 0.576 | 0.586 | 0.546 | 0.596 | 0.649 | 0.505 | 0.435 |
| COR-L23 | 0.24 | 0.195 | 0.319 | 0.457 | – | – | – | – | 0.882 | 0.735 | 0.802 | 0.765 | 0.461 | 0.737 | 0.854 | 0.494 | 0.76 |
| HCC-78 | 0.388 | 0.439 | 0.314 | 0.409 | 0.588 | 0.675 | 0.67 | 0.717 | 0.381 | 0.33 | 0.329 | 0.377 | 0.222 | 0.179 | 0.212 | 0.159 | 0.194 |
| NCI-H1299 | – | – | – | – | – | – | – | – | – | – | – | – | 1.14 | 1.17 | 1.27 | 1.04 | 1.28 |
| NCI-H727 | 0.655 | 0.689 | 0.828 | 0.584 | 0.646 | 0.449 | 0.578 | 0.668 | 0.511 | 0.68 | 0.535 | 0.565 | 0.398 | 0.535 | 0.46 | – | 0.493 |
| NCI-H2087 | 0.228 | 0.269 | 0.292 | 0.304 | 1.48 | 1.18 | 1.46 | 1.22 | 0.469 | 0.428 | 0.547 | 0.452 | 0.953 | 1.06 | 1.17 | 0.819 | 0.972 |
| BEN | 0.532 | 0.47 | 0.576 | 0.525 | 0.8 | 0.82 | 0.752 | 0.736 | 0.317 | 0.28 | 0.288 | 0.244 | 0.866 | 0.886 | 1.11 | 0.828 | 0.947 |
| NCI-H1650 | 0.482 | 0.483 | 0.576 | 0.49 | – | – | – | – | 0.602 | 0.857 | 0.519 | 0.555 | – | – | – | – | – |
| COR-L 105 | 0.412 | 0.429 | 0.385 | 0.353 | – | – | – | – | 0.534 | 0.882 | 0.487 | 0.554 | 0.771 | 0.837 | 0.784 | 0.517 | 0.728 |
| ChaGo-K-1 | 0.206 | 0.218 | 0.219 | 0.244 | 0.911 | 0.852 | 0.882 | 0.856 | 0.572 | 0.604 | 0.564 | 0.501 | – | – | – | – | – |
| NCI-H2228 | 0.254 | 0.311 | 0.265 | 0.257 | – | – | – | – | 0.539 | 0.451 | 0.499 | 0.256 | 0.477 | 0.589 | 0.578 | 0.397 | 0.539 |
| SW 900 | 0.509 | 0.539 | 0.585 | 0.548 | 0.62 | 0.564 | 0.611 | 0.577 | 0.445 | 0.539 | 0.546 | 0.409 | – | – | – | – | – |
| NCI-H661 | 0.377 | 0.342 | 0.344 | 0.363 | – | – | – | – | 0.734 | 0.691 | 0.772 | 0.725 | 0.656 | 0.454 | 0.486 | – | 0.419 |
| NCI-H1563 | – | – | – | – | – | – | – | – | 0.748 | 0.713 | 0.773 | 0.729 | 0.753 | 0.703 | 0.672 | 0.661 | 0.688 |
| A549 | – | – | – | – | – | – | – | – | – | – | – | – | 0.585 | 0.552 | 0.43 | 0.275 | 0.361 |
| NCI-H2342 | 0.503 | 0.659 | 0.57 | 0.511 | 0.472 | 0.748 | 0.652 | 0.497 | 0.677 | 0.574 | 0.785 | 0.692 | – | – | – | – | – |
| NCI-H1623 | 0.432 | 0.45 | 0.442 | 0.411 | – | – | – | – | 0.443 | 0.472 | 0.444 | 0.444 | – | – | – | – | – |
| NCI-H522 | 0.573 | 0.671 | 0.547 | 0.606 | 0.901 | 0.791 | 0.986 | 0.792 | 0.654 | 0.755 | 0.74 | 0.499 | – | – | – | – | – |
| IA-LM | – | – | – | – | – | – | – | – | – | – | – | – | 0.638 | 0.585 | 0.631 | 0.313 | 0.809 |
| EBC-1 | – | – | – | – | – | – | – | – | – | – | – | – | 0.32 | 0.346 | 0.27 | 0.177 | 0.299 |
